From patent US9249129B2, “Morpholino substituted urea derivatives as mTOR inhibitors” (CELLZOME LIMITED, priority 2010, dated 2016)

How the values were obtained:
Assay in all cases: kinobeads assay with mass spectrometry detection of kinases (kinase selectivity profile)
Assay type in all cases: binding
kinases (kinome) [1] = molecular target: T1, kinases (kinome) (Homo sapiens, UniProt P23458); conditions: JAK1 (TK), IPI00784013
T1 construct: determined in kinobeads assays with mass spectrometry detection of kinases as described previously; endogenous in cells; host or cells: cell lysate
T1 sequence (P23458 whole entry): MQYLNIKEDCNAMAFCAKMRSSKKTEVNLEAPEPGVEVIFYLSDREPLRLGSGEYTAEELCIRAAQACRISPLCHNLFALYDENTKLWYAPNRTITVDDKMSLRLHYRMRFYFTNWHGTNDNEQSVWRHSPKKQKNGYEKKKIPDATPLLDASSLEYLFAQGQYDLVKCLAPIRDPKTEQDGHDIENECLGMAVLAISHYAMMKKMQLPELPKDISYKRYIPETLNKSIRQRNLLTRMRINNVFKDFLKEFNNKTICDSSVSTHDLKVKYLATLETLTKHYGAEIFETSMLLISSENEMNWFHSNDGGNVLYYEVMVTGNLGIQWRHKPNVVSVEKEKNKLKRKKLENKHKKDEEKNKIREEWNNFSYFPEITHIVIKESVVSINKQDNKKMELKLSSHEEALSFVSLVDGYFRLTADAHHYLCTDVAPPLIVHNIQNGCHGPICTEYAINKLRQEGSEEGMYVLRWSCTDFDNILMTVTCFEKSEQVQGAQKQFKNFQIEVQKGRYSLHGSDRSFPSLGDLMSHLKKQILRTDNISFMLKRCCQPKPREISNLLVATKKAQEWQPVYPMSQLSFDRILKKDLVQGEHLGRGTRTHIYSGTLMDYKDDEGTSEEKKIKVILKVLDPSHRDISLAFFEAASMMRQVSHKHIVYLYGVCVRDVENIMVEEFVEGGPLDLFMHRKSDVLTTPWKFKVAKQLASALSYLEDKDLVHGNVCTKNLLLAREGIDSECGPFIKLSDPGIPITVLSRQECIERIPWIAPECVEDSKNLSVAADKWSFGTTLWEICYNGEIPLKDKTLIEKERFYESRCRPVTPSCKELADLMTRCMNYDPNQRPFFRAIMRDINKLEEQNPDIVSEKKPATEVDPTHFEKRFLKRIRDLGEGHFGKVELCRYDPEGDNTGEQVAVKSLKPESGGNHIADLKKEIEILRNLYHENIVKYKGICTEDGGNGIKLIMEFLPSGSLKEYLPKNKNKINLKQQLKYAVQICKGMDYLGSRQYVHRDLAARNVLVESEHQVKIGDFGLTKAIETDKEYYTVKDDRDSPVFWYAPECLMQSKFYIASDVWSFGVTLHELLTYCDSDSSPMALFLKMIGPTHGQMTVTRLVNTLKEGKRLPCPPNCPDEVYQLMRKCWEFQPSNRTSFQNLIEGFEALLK
Source text: (§1) The protein kinase complement of the human genome (the kinome) was described previously (Manning et al., 2002. Science 298(5600):1912-1934). Sequence accession numbers are defined by the International Protein Index (IPI) (Kersey et al., 2004. Proteomics 4(7):1985-1988).

kinases (kinome) [2] = molecular target: T2, kinases (kinome) (Homo sapiens, UniProt P36896); conditions: ALK4 (TKL), IPI00005732
T2 construct: determined in kinobeads assays with mass spectrometry detection of kinases as described previously; endogenous in cells; host or cells: cell lysate
T2 sequence (P36896 24-505): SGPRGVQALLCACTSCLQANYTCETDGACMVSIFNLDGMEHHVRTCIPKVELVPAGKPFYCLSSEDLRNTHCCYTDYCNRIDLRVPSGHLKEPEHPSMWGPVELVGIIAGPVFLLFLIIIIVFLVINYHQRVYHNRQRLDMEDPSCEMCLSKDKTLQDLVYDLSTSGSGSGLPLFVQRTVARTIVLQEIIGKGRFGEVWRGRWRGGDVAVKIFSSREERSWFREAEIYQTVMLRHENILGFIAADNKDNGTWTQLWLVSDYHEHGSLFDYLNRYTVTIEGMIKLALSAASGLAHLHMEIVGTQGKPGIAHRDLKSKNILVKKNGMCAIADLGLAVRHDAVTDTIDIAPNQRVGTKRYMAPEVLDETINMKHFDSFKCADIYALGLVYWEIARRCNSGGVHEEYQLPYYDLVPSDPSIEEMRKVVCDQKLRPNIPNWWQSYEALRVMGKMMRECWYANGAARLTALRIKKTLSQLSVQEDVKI
Source text: as §1

kinases (kinome) [3] = molecular target: T3, kinases (kinome) (Homo sapiens, UniProt P50613); conditions: CDK7 (CMGC), IPI00000685
T3 construct: determined in kinobeads assays with mass spectrometry detection of kinases as described previously; endogenous in cells; host or cells: cell lysate
T3 sequence (P50613 whole entry): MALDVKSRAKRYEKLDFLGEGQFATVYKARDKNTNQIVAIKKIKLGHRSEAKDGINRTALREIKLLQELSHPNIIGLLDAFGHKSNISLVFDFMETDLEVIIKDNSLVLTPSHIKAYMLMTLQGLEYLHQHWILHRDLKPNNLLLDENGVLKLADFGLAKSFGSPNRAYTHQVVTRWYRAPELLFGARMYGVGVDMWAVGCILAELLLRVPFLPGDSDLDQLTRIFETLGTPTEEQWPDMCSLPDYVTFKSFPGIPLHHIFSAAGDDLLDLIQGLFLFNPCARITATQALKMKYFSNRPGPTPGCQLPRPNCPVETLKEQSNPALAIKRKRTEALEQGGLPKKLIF
Source text: as §1

kinases (kinome) [4] = molecular target: T4, kinases (kinome) (Homo sapiens, UniProt Q13418); conditions: ILK (TKL), IPI00013219
T4 construct: determined in kinobeads assays with mass spectrometry detection of kinases as described previously; endogenous in cells; host or cells: cell lysate
T4 sequence (Q13418 1-452): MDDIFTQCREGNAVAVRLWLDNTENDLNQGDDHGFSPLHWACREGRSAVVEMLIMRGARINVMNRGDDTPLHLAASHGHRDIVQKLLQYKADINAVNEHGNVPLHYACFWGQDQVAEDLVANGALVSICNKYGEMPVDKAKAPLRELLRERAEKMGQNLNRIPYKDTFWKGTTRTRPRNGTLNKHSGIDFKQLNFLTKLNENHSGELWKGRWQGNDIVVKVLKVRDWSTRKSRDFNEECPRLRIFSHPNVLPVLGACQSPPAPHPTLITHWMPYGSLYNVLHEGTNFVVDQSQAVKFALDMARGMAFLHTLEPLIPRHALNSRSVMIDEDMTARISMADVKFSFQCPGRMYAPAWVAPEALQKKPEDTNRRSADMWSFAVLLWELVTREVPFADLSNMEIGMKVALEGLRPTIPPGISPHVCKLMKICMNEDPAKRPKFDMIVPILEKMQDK
Source text: as §1

kinases (kinome) [5] = molecular target: T5, kinases (kinome) (Homo sapiens, UniProt Q13557); conditions: CaMK2d (CAMK), IPI00828081
T5 construct: determined in kinobeads assays with mass spectrometry detection of kinases as described previously; endogenous in cells; host or cells: cell lysate
T5 sequence (Q13557 whole entry): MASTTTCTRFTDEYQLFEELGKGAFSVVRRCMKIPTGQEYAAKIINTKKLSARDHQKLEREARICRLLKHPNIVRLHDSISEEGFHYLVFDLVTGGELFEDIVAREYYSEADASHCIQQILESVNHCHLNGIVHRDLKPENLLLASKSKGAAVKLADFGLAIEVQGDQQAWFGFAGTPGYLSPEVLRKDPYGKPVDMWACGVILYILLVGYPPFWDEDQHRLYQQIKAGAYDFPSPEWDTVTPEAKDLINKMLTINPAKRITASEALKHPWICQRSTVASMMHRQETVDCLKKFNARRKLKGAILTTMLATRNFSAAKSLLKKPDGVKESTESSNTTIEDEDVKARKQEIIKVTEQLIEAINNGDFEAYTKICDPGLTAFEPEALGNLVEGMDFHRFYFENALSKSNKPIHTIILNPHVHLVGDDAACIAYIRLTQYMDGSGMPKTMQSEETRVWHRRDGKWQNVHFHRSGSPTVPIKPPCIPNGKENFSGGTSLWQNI
Source text: as §1

kinases (kinome) [6] = molecular target: T6, kinases (kinome) (Homo sapiens, UniProt Q8TBX8); conditions: PIP5K2C (Lipid Kinase), IPI00152303
T6 construct: determined in kinobeads assays with mass spectrometry detection of kinases as described previously; endogenous in cells; host or cells: cell lysate
T6 sequence (Q8TBX8 1-421): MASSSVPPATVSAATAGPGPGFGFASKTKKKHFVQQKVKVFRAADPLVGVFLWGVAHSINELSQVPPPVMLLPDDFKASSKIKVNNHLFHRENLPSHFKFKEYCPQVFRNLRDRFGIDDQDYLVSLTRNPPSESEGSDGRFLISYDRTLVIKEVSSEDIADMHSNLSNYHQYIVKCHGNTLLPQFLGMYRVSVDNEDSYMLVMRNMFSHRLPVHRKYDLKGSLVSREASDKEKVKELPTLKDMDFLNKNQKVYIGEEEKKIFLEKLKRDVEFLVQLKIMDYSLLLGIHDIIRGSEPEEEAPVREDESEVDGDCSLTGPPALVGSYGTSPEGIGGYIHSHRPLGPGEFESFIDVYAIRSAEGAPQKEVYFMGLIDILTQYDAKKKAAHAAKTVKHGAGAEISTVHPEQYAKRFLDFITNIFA
Source text: as §1

kinases (kinome) [7] = molecular target: T7, kinases (kinome) (Homo sapiens, UniProt Q9UBE8); conditions: NLK (CMGC), IPI00008237
T7 construct: determined in kinobeads assays with mass spectrometry detection of kinases as described previously; endogenous in cells; host or cells: cell lysate
T7 sequence (Q9UBE8 1-527): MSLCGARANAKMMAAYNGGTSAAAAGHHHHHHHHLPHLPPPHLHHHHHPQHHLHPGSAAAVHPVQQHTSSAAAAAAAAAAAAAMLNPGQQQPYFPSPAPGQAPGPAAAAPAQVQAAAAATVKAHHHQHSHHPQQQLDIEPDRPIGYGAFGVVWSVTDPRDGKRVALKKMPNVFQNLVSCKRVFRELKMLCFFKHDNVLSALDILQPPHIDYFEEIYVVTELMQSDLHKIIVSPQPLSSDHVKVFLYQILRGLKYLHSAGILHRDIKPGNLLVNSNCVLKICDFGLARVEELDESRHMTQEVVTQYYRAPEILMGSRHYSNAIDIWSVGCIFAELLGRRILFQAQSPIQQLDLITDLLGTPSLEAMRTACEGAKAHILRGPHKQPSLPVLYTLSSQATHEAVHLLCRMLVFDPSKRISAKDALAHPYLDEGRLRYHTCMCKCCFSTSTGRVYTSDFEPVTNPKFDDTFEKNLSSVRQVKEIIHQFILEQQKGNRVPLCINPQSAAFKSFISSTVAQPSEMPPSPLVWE
Source text: as §1

kinases (kinome) [8] = molecular target: T8, kinases (kinome) (Homo sapiens, UniProt Q15131); conditions: CDK10 (CMGC), IPI00014873
T8 construct: determined in kinobeads assays with mass spectrometry detection of kinases as described previously; endogenous in cells; host or cells: cell lysate
T8 sequence (Q15131 whole entry): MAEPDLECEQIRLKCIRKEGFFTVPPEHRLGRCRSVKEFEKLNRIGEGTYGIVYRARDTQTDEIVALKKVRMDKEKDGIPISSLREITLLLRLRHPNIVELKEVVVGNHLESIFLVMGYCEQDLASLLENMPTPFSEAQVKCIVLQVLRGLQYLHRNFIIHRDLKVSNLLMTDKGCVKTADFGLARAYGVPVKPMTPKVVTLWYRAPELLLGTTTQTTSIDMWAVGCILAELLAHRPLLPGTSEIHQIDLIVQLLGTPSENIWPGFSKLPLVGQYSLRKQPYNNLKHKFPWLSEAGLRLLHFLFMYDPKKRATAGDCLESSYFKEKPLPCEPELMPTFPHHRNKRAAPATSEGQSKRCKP
Source text: as §1

kinases (kinome) [9] = molecular target: T9, kinases (kinome) (Homo sapiens, UniProt P49760); conditions: CLK2 (CMGC), IPI00028071
T9 construct: determined in kinobeads assays with mass spectrometry detection of kinases as described previously; endogenous in cells; host or cells: cell lysate
T9 sequence (P49760 whole entry): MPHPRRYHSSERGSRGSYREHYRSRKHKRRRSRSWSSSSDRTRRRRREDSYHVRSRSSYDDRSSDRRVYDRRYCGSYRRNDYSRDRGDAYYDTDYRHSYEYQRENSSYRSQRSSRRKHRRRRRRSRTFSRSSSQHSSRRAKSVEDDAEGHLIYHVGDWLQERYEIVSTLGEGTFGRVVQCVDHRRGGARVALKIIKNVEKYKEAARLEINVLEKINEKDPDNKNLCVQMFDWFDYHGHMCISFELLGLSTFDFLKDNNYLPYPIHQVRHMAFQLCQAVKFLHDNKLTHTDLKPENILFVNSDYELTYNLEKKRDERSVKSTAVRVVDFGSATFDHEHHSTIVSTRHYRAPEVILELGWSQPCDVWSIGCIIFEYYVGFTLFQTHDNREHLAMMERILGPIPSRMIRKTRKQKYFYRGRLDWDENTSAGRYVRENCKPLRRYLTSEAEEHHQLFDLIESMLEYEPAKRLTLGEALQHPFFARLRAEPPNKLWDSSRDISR
Source text: as §1

Measured: IC50

C[C@H]1COCCN1c1nc(-c2ccc(NC(=O)N[C@H]3CCC[C@@H]3O)cc2)cc(-c2cc(F)ccc2S(C)(=O)=O)n1 [Example 76, 1-(4-(6-(5-fluoro-2-(methylsulfonyl)phenyl)-2-((S)-3-methylmorpholino)pyrimidin-4-yl)phenyl)-3-((1S,2S)-2-hydroxycyclopentyl)urea]
not listed: kinases (kinome) [8] | kinases (kinome) [9]
> 10 µM: all other assays above

C[C@H]1COCCN1c1nc(-c2ccc(NC(=O)NC3CC3)cc2)cc(-c2ccccc2S(C)(=O)=O)n1 [Example 4, (S)-1-cyclopropyl-3-(4-(2-(3-methylmorpholino)-6-(2-(methylsulfonyl)phenyl)pyrimidin-4-yl)phenyl)urea]
not listed: kinases (kinome) [6] | kinases (kinome) [9]
> 10 µM: all other assays above

C[C@H]1COCCN1c1cc(-c2ccccc2S(C)(=O)=O)nc(-c2ccc(NC(=O)NC3CC3)cc2)n1 [Example 6, (S)-1-cyclopropyl-3-(4-(4-(3-methylmorpholino)-6-(2-(methylsulfonyl)phenyl)pyrimidin-2-yl)phenyl)urea]
> 10 µM: kinases (kinome) [1] | kinases (kinome) [2] | kinases (kinome) [3] | kinases (kinome) [5] | kinases (kinome) [7]

C[C@H]1COCCN1c1cc(-c2ccccn2)nc(-c2ccc(NC(=O)NCCO)cc2)n1 [Example 43, (S)-1-(2-hydroxyethyl)-3-(4-(4-(3-methylmorpholino)-6-(pyridin-2-yl)pyrimidin-2-yl)phenyl)urea]
not listed: kinases (kinome) [2]
> 10 µM: all other assays above

C[C@H]1COCCN1c1nc(-c2ccc(NC(=O)NC3CC3)cc2)cc(-c2cccnc2S(C)(=O)=O)n1 [Example 46, (S)-1-cyclopropyl-3-(4-(2-(3-methylmorpholino)-6-(2-(methylsulfonyl)pyridin-3-yl)pyrimidin-4-yl)phenyl)urea]
not listed: kinases (kinome) [4] | kinases (kinome) [8]
> 10 µM: all other assays above

CCNC(=O)Nc1ccc(-c2cc(-c3ccccc3C#N)nc(N3CCOC[C@@H]3C)n2)cc1 [Example 8, (S)-1-(4-(6-(2-cyanophenyl)-2-(3-methylmorpholino)pyrimidin-4-yl)phenyl)-3-ethylurea]
not listed: kinases (kinome) [6] | kinases (kinome) [8]
> 10 µM: all other assays above

C[C@H]1COCCN1c1nc(-c2ccc(NC(=O)NC3CC3)cc2)cc(-c2cc(F)ccc2S(C)(=O)=O)n1 [Example 40, (S)-1-cyclopropyl-3-(4-(6-(5-fluoro-2-(methylsulfonyl)phenyl)-2-(3-methylmorpholino)pyrimidin-4-yl)phenyl)urea]
not listed: kinases (kinome) [9]
> 10 µM: all other assays above
